Where two headings read alike, the source gives them in different places. Blank lines part the entries; values can stand above or below the compound they belong to.
How the values were obtained:
HspUPO [1] = settings: 2 mM H2O2, McIlvaine buffer pH 5, 25 °C; glycosylated enzyme
HspUPO [2] = settings: 2 mM H2O2, McIlvaine buffer pH 4, 25 °C; glycosylated enzyme
HspUPO [3] = settings: 2 mM H2O2, McIlvaine buffer pH 7, 25 °C; glycosylated enzyme
HspUPO [4] = settings: 2 mM H2O2, McIlvaine buffer pH 7, 25 °C; glycosylated enzyme; remark: listed apart in the source
HspUPO [5] = settings: 2 mM H2O2, McIlvaine buffer pH 7, 25 °C; glycosylated enzyme; remark: listed apart in the source

- Km (HspUPO [1]): 57.5 ± 5 µM
SMILES: COc1cccc(OC)c1O [2,6-Dimethoxyphenol]

- Km (HspUPO [2]): 758 ± 100 µM
SMILES: COc1ccc(CO)cc1OC [2a, 3,4-Dimethoxybenzyl alcohol]

- Km (HspUPO [3]): 18 ± 3.42 µM
SMILES: O=[N+]([O-])c1ccc2c(c1)OCO2 [5-Nitro-1,3-benzodioxole]

- Km (HspUPO [4]): 54 ± 8.16 µM
SMILES: c1ccc2[nH]ccc2c1 [6a, Indole]

- Km (HspUPO [5]): 680 ± 0.14 µM
SMILES: OCc1ccccc1 [Benzyl alcohol]
